{
  "source": "paper PMC8765781",
  "about": "“A platform of assays for the discovery of anti-Zika small-molecules with activity in a 3D-bioprinted outer-blood-retina model” (PLoS ONE, 2022)",
  "key": {"[1]": {"tested_on": "wild-type ZIKV (Ugandan MR766 strain) in Vero cells", "assay": "ZIKV cytopathic effect (CPE) inhibition qHTS assay, CellTiter-Glo readout", "type": "cell-based, Zika virus", "details": "for AC50 / IC50: Zika virus; for IC50: read-out: ZIKV-infection (CPE, ZIKV Antiviral Assays), IC50"}, "[2]": {"tested_on": "caspase-3 activity induced by ZIKV in Vero cells", "assay": "cells", "type": "cell-based", "details": "Zika virus, read-out: Caspase 3 (ZIKV Antiviral Assays), IC50"}, "[3]": {"tested_on": "ZIKV-RLuc (Cambodian strain FSS13025)", "assay": "microbe, parasite or virus in culture", "type": "cell-based, Zika virus", "details": "for IC50 / AC50: Zika virus, Vero; for IC50: 48 h, read-out: Rluc-ZIKV (ZIKV Antiviral Assays), IC50"}, "[4]": {"tested_on": "ZIKV-mCherry (Cambodian strain FSS13025)", "assay": "microbe, parasite or virus in culture", "type": "cell-based, Zika virus", "details": "for AC50: Zika virus, Vero"}, "[5]": {"assay": "in vitro", "details": "African green monkey"}, "[6]": {"tested_on": "Vero cells"}, "[7]": {"details": "Vero, read-out: Log AC50 (M) (converted)"}, "[8]": {"details": "read-out: Log AC50 (M) (converted)"}},
  "note": "Read-outs that look alike come from different tables or passages of the source.",
  "data": [
    {"smiles": "CC1=CC[C@]2(C(=O)O[C@@H]3O[C@H](CO[C@@H]4O[C@H](CO)[C@@H](O[C@@H]5O[C@@H](C)[C@H](O)[C@@H](O)[C@H]5O)[C@H](O)[C@H]4O)[C@@H](O)[C@H](O)[C@H]3O)CC[C@]3(C)C(CCC4[C@@]5(C)C[C@@H](O)[C@H](O)[C@@](C)(CO)C5CC[C@]43C)C2C1C", "note": "(stereo partly drawn) [NCGC00381125-01]", "values": [
      {"measurement": "CC-v2 (curve class classification of the dose response curve)", "setting": "[1]", "value": -3},
      {"measurement": "Efficacy", "setting": "[1]", "value": -73.731},
      {"measurement": "AC50", "setting": "[1]; Vero", "value": "6.18e-06", "unit": "M"},
      {"measurement": "IC50", "setting": "[1]; Vero, 48 h", "value": 6.18, "unit": "µM"},
      {"measurement": "AC50", "setting": "[1]; [7]", "value": "6.18e-06", "unit": "M"},
      {"measurement": "IC50", "setting": "[2]; Vero, 48 h", "value": 0.01, "unit": "µM"},
      {"measurement": "IC50", "setting": "[3]", "value": 0.003, "unit": "µM"},
      {"measurement": "CC-v2 (curve class of the dose response curve)", "setting": "[4]", "value": -1.4},
      {"measurement": "Efficacy (difference between neutral response and maximum compound response)", "setting": "[4]", "value": -51.276},
      {"measurement": "Max Resp (difference between neutral response and response at highest compound concentration)", "setting": "[4]", "value": -44.108},
      {"measurement": "CC50 at 48 h", "setting": "[5]", "value": "> 50", "unit": "µM"}
    ]},
    {"smiles": "CC(=O)OCC1OC(OC2COC(OC3COC(OC4C(OC5C(CO)OC(OC6CCC7(C)C(CCC8(C)C7CC=C7C9CC(C)(C)CCC9(C(=O)OC9OC(CO)C(O)C(O)C9OC9OCC(OC%10OCC(O)(CO)C%10O)C(O)C9O)C(O)CC78C)C6(C)C)C(O)C5O)OCC(O)C4O)C(O)C3O)C(O)C2O)C(OC(=O)/C=C/c2ccccc2)C(O)C1OC(C)=O", "note": "(stereo not drawn) [NCGC00381294-01]", "values": [
      {"measurement": "AC50", "setting": "[1]; Vero, from Hill fit of the response curve, 50% of maximum activity response, 194 cherry-picked compounds, protocol name not given, read-out: AC50", "value": "5.62e-06", "unit": "M"},
      {"measurement": "AC50", "setting": "[1]; Vero, potency in log units (Molar) from Hill fit of the response curve, 194 cherry-picked compounds, protocol name not given, read-out: Log AC50 (converted)", "value": "5.62e-06", "unit": "M"},
      {"measurement": "IC50", "setting": "[1]; Vero cells, wild-type ZIKV MOI 1, 48 hr, unit inferred", "value": 5.62, "unit": "µM"},
      {"measurement": "CC-v2 (curve class classification of the dose response curve)", "setting": "[1]; curve class v2 (Inglese et al. 2006)", "value": -2.2},
      {"measurement": "Efficacy", "setting": "[1]; difference between neutral response and maximum compound response", "value": -55.683},
      {"measurement": "IC50", "setting": "[2]; ZIKV-infected Vero cells, 48 hr, unit inferred", "value": 0.2, "unit": "µM"},
      {"measurement": "IC50", "setting": "[3]", "value": 1.6, "unit": "µM"},
      {"measurement": "CC-v2 (curve class of the dose response curve)", "setting": "[4]", "value": -1.3},
      {"measurement": "Efficacy (difference between neutral response and maximum compound response)", "setting": "[4]", "value": -53.243},
      {"measurement": "Max Resp (difference between neutral response and response at highest compound concentration)", "setting": "[4]", "value": -100.305},
      {"measurement": "AC50", "setting": "[4]", "value": "1.16e-06", "unit": "M"},
      {"measurement": "AC50", "setting": "[4]; [8]", "value": "1.16e-06", "unit": "M"},
      {"measurement": "CC50", "setting": "[5]", "value": "> 50", "unit": "µM"}
    ]},
    {"smiles": "CC(=O)O[C@@H]1C[C@]2(C)[C@@]3(CCC4[C@@]5(C)CC[C@H](O[C@@H]6O[C@H](C(=O)O)[C@@H](O)[C@H](OC7OC(CO)C(O)C(O)[C@H]7O[C@@H]7O[C@@H](C)[C@H](O)[C@@H](O)[C@H]7O[C@@H]7OC[C@](O)(CO)[C@H]7O)[C@H]6OC6OC(CO)C(O)C(O)C6O)C(C)(C)C5CC[C@]42C)OC[C@@]12CCC(C)(C)CC23", "note": "(stereo partly drawn) [NCGC00381303-01]", "values": [
      {"measurement": "Efficacy", "setting": "[1]", "value": -19.952},
      {"measurement": "AC50", "setting": "[1]; Vero", "value": "2.75e-06", "unit": "M"},
      {"measurement": "IC50", "setting": "[1]; Vero, 48 h", "value": 2.75, "unit": "µM"},
      {"measurement": "AC50", "setting": "[1]; [7]", "value": "2.75e-06", "unit": "M"},
      {"measurement": "IC50", "setting": "[2]; Vero, 48 h", "value": 4.48, "unit": "µM"},
      {"measurement": "IC50", "setting": "[3]", "value": 1.77, "unit": "µM"},
      {"measurement": "CC-v2 (curve class of the dose response curve)", "setting": "[4]", "value": -1.2},
      {"measurement": "Efficacy (difference between neutral response and maximum compound response)", "setting": "[4]", "value": -57.722},
      {"measurement": "Max Resp (difference between neutral response and response at highest compound concentration)", "setting": "[4]", "value": -99.519},
      {"measurement": "AC50", "setting": "[4]", "value": "3.18e-06", "unit": "M"},
      {"measurement": "AC50", "setting": "[4]; [8]", "value": "3.18e-06", "unit": "M"},
      {"measurement": "CC50 at 48 h", "setting": "[5]; Vero cells", "value": "> 50", "unit": "µM"}
    ]},
    {"smiles": "C[C@@H]1O[C@@H](O[C@H]2[C@H](O[C@H]3[C@H](O)[C@@H](C(=O)O)O[C@@H](O[C@H]4CC[C@@]5(C)C(CC[C@]6(C)C5CC[C@]57OC[C@@]8(CCC(C)(C)CC85)[C@H](O)C[C@]76C)C4(C)C)[C@@H]3O[C@@H]3O[C@H](CO)[C@@H](O[C@@H]4OC[C@@H](O)[C@H](O)[C@H]4O)[C@H](O)[C@H]3O)O[C@H](CO)[C@H](O)[C@@H]2O)[C@H](O)[C@H](O)[C@H]1O", "note": "(stereo partly drawn) [NCGC00384492-01]", "values": [
      {"measurement": "Efficacy", "setting": "[1]", "value": -27.701},
      {"measurement": "AC50", "setting": "[1]; Vero", "value": "1.1e-05", "unit": "M"},
      {"measurement": "IC50", "setting": "[1]; Vero, 48 h", "value": 11, "unit": "µM"},
      {"measurement": "AC50", "setting": "[1]; [7]", "value": "1.1e-05", "unit": "M"},
      {"measurement": "IC50", "setting": "[2]; Vero, 48 h", "value": 5.64, "unit": "µM"},
      {"measurement": "IC50", "setting": "[3]", "value": 5.61, "unit": "µM"},
      {"measurement": "CC-v2 (curve class of the dose response curve)", "setting": "[4]", "value": -1.4},
      {"measurement": "Efficacy (difference between neutral response and maximum compound response)", "setting": "[4]", "value": -52.527},
      {"measurement": "Max Resp (difference between neutral response and response at highest compound concentration)", "setting": "[4]", "value": -99.118},
      {"measurement": "CC50 at 48 h", "setting": "[5]; Vero cells", "value": "> 50", "unit": "µM"}
    ]},
    {"smiles": "C/C=C(/C)C(=O)O[C@H]1[C@@H]2[C@H](C)C(=O)O[C@@H]2C[C@@H](C)[C@@H]2C=CC(=O)[C@]21C", "note": "[NCGC00385048-01]", "values": [
      {"measurement": "Efficacy", "setting": "[1]", "value": -20.801},
      {"measurement": "IC50", "setting": "[2]; Vero, 48 h", "value": 0.65, "unit": "µM"},
      {"measurement": "IC50", "setting": "[3]", "value": 18.1, "unit": "µM"},
      {"measurement": "CC50 at 48 h", "setting": "[5]", "value": "> 50", "unit": "µM"}
    ]},
    {"smiles": "Oc1cc(O)cc(CCCCC/C=C\\CCCCCCCc2cc(O)cc(O)c2)c1", "note": "[NCGC00385180-01]", "values": [
      {"measurement": "CC-v2 (curve class classification v2 of the dose response curve)", "setting": "[3]", "value": -3},
      {"measurement": "Efficacy (difference between neutral response and maximum compound response)", "setting": "[3]", "value": -110.94},
      {"measurement": "Max Resp (difference between neutral response and compound response for highest compound concentration)", "setting": "[3]", "value": -89.374},
      {"measurement": "AC50", "setting": "[3]", "value": "3.69e-05", "unit": "M"},
      {"measurement": "AC50", "setting": "[3]; [8]", "value": "3.69e-05", "unit": "M"},
      {"measurement": "Log AC50 (M)", "setting": "[6]", "value": -4.4327, "unit": "M"}
    ]},
    {"smiles": "COc1ccc(-c2oc3cc(O)c(OC)c(O)c3c(=O)c2OC)cc1O", "note": "[NCGC00385612-01]", "values": [
      {"measurement": "CC-v2 (curve class classification v2 of the dose response curve)", "setting": "[3]", "value": -1.2},
      {"measurement": "Efficacy (difference between neutral response and maximum compound response)", "setting": "[3]", "value": -71.455},
      {"measurement": "Max Resp (difference between neutral response and compound response for highest compound concentration)", "setting": "[3]", "value": -72.562},
      {"measurement": "AC50", "setting": "[3]", "value": "1.17e-06", "unit": "M"},
      {"measurement": "AC50", "setting": "[3]; [8]", "value": "1.17e-06", "unit": "M"},
      {"measurement": "AC50", "setting": "[6]", "value": 1.17, "unit": "µM"},
      {"measurement": "Log AC50 (M)", "setting": "[6]", "value": -5.9327, "unit": "M"}
    ]}
  ]
}
